Residues, ends and D or L forms follow the SMILES beside them. *: point of attachment. Cbz = O=C(OCc1ccccc1)*; CH2F = FC*
Key:
Assay type in all cases: cell-based, human
[1] = tested on: Cama-1 cells; test: Apoptosis by annexin V staining and flow cytometry; settings: Cama-1; for effect on Poly IC induced apoptosis: 5 μg/ml Poly IC; for percentage of apoptotic cells: 5 μg/ml Poly IC or 25 ng/ml TNF-α
Method: (§1) Cell recovery after treatment with TLR ligands was measured by crystal violet staining (Sigma-Aldrich). Cells were plated at 10^4 cells/well in 96 well plates. After 72 hours of culture either with or without TLR ligand, the cells were washed with PBS, fixed in 6% formaldehyde (Sigma-Aldrich) for 20 minutes, washed twice, and then stained with 0.1% crystal violet for 10 minutes. After washes and incubation in 1% SDS for 1 hour, the absorbance was read at 605 nm on a Vmax plate reader (Molecular Devices, Sunnyvale, Calif.). Annexin V staining was performed with an annexin-FITC apoptosis detection kit (BD Pharmingen, San Diego, Calif.) according to the manufacturer's instructions. Sub-diploid cells were detected by staining with 3 μg/mL propidium iodide (PI) (Molecular probes, Eugene, Oreg.), after overnight permeabilization in 70% ethanol. Fluorescence was analyzed by flow cytometry on a FACScalibur (Becton Dickinson, Mountain View, Calif.) equipped with a doublet-discrimination module and using Celiquest Pro software (Becton Dickinson).
Cama-1 cells were plated in 6 well plates at 3×10^5 cells per well. After overnight adherence, siRNA transfections were performed for 5 hours in OptiMEM medium (Life technologies) containing 3 μg/mL lipofectamine 2000 (Invivogen) and 100 nM siRNA. Cells were then washed and cultured for 72 hours in complete medium before treatment with Poly IC and apoptosis analysis. siRNA duplexes specific for TLR3, PKR, IRAK-4, TRAF6 and p65 were purchased from Dharmacon (Lafayette, Colo.) as SMART-Pools. TRIF siRNA was purchased from the same supplier as single oligoduplexes (5′-GCUCUUGUAUCUGMGCAC-3′) (SEQ ID NO: 23). TLR3 and TRIF expression was assessed by PCR (35 cycles: 1 min 94° C., 1 min 55° C., 2 min 72° C.) with Taq PCR ReadyMix (Sigma-Aldrich) using following primers: […]
To further investigate the effect of Poly IC treatment on breast tumor cell lines, cell death was analyzed in Cama-1 cells by annexin V staining. Cells were cultured for 24 hours either with or without 5 μg/ml of Poly IC. Apoptosis was measured by annexin V staining and flow cytometry.
We also tried to determine the kinetics of Poly IC induced apoptosis. Cama-1 cells were cultured either with or without 5 μg/ml or 50 ng/ml of Poly IC. The percentage of apoptotic (annexin positive) cells in the culture were measured during the following 30 hours. […] Specifically, Poly IC triggered apoptosis in Cama-1 cells beginning 9 hours after Poly IC addition and reaching up to 80% apoptotic cells after 30 hours of treatment.
Poly AU was analyzed for its effects on apoptosis. Cama-1 cells were cultured for 48 hours either with PBS or with increasing concentrations of Poly AU ranging from 5 ng/ml to 50 μg/ml. Apoptosis was analyzed by measuring the percentage of annexin V positive cells.
In order to determine the pathway of Poly IC induced Cama-1 cell toxicity, RNA interference was used to efficiently downregulate expression of TRIF and PKR. Cama-1 cells were plated in 6 well plates at 3×10^5 cells per well. After overnight adherence, siRNA transfections were performed for 5 hours in OptiMEM medium (Life technologies) containing 3 μg/mL lipofectamine 2000 (Invivogen) and 100 nM siRNA. Cells were transfected with either MOCK (water), control scrambled duplex (scr) siRNA, TRIF siRNA or PKR siRNA.
72 hours after siRNA transfection, Cama-1 cells were cultured for another 24 hours either with or without 5 μg/ml Poly IC. Apoptosis was measured by annexin V staining and expressed as a percentage of apoptotic cells in culture. On average, 10% of control cells (MOCK and scr) that were untreated underwent apoptosis. In contrast, about 75% of control cells (MOCK and scr) that were treated with Poly IC underwent apoptosis.
To further investigate TLR3 mediated cytotoxicity, the involvement of the signaling molecules IRAK4 and TRAF6, both downstream mediators of TLR signaling, were assessed. Cama-1 cells were plated in 6 well plates at 3×10^5 cells per well. […]

[2] = tested on: Cama-1, SW527, BT483 and MCF-7; test: Cell recovery by crystal violet staining, four breast tumor cell lines together; settings: 72 h, 5 μg/ml PGN; for effect on cell recovery of any of the four breast cancer cell lines: 10 μg/ml LPS, 50 ng/ml flagellin, 6 μg/ml R848, 10 μg/ml CpG ODNs; for cell recovery, percent of control, on average: 50 μg/ml Poly IC or 10 μg/ml LPS, average of the four cell lines
Method: as §1
Four human breast tumor cell lines, Cama-1, SW527, BT483 and MCF-7, were analyzed for cell death in response to Poly IC. Cells were cultured for 72 hours with 5 μg/ml PGN, 50 μg/ml Poly IC or 10 μg/ml LPS. Control cells were cultured with PBS. Cytotoxicity was assessed by crystal violet staining and expressed as a percent of control.
Furthermore, additional TLR ligands were tested to determine any possible effects on cellular toxicity. The ligands tested were PGN, LPS, Flagellin, R848 and CpG. Cells were cultured for 72 hours with 5 μg/ml PGN, 10 μg/ml LPS, 50 ng/ml flagellin, 6 μg/ml R848, 10 μg/ml CpG ODNs, or with PBS as control. Cell recovery was assessed by crystal violet staining and expressed as a percent of control.

[3] = tested on: TLR3 mRNA; test: TLR3 mRNA expression by RT-PCR in Cama-1 cells; settings: 48 h, 5 μg/ml, agent alone
Method: Cama-1 cells were analyzed for TLR3 mRNA expression in response to Poly IC. Cama-1 cells were cultured in complete medium (DMEM F12 containing […] glucose and complemented with 2 mM L-glutamine, 10% fetal calf serum, 160 μg/mL gentalline, 2.5 mg/mL sodium bicarbonate) for 48 hours either alone or with LPS (5 μg/ml) and/or with Poly IC (5 μg/ml). The mRNA from each group of cells was extracted. The mRNA was then reverse-transcribed and PCR amplified for 35 cycles (as above in Example 1) with hTLR3 specific primers: TLR3F: […] (SEQ ID NO: 5) and TLR3R: […] (SEQ ID NO: 6). TLR3 mRNA could not be amplified from resting Cama-1 cells.
Amplified DNA from RT-PCR using hTLR3 specific primers was run on a gel.

[4] = tested on: IL-8; test: IL-8 secretion by breast cancer cell lines; settings: certain cell lines

C[C@@H]1C[C@@H]([C@H](O)CC2CC(=O)NC(=O)C2)C(=O)[C@@H](C)C1 [CHX, Cycloheximide]
effect on TNF-α induced apoptosis ([1]; 25 ng/ml TNF-α, annexin V): significantly sensitized Cama-1 cells to TNF-α induced apoptosis | effect on Poly IC induced apoptosis ([1]; annexin V): partially protected the cells against Poly IC induced apoptosis

COC(=O)C[C@H](NC(=O)[C@H](C)NC(=O)[C@@H](NC(=O)OCc1ccccc1)C(C)C)C(=O)CF [z-VAD-fmk] (Cbz-Val-Ala-Asp(OMe)-CH2F)
effect on Poly IC induced apoptosis ([1]; annexin V): greatly reduced Poly IC induced apoptosis

polyadenylic-polyuridylic acid [Poly AU]
apoptosis (annexin V positive cells) ([1]; 48 h, 5 ng/ml to 50 μg/ml Poly AU): triggers apoptosis

TNF-α
percentage of apoptotic cells ([1]; 25 μM z-VAD-fmk pre-incubation 1 h, 24 h): 10% | percentage of apoptotic cells ([1]; DMSO pre-incubation 1 h, 24 h): 40% | percentage of apoptotic cells ([1]; absence of antibody (Example 12)): 40% | percentage of apoptotic cells ([1]; pre-incubated with 10 μg/ml CHX, untreated 15%): 70% | percentage of apoptotic cells ([1]; pre-incubated with 20 μg/ml neutralizing anti TNF-α mAb): 10%

Flagellin
effect on cell recovery of any of the four breast cancer cell lines [2]: None of those ligands significantly reduced cell recovery

CCOCc1nc2c(N)nc3ccccc3c2n1CC(C)(C)O [R848]
effect on cell recovery of any of the four breast cancer cell lines [2]: None of those ligands significantly reduced cell recovery

lipopolysaccharide [LPS]
effect on cell recovery of any of the four breast cancer cell lines [2]: None of those ligands significantly reduced cell recovery | cell recovery, percent of control, on average [2]: 95% | TLR3 mRNA expression [3]: did not affect TLR3 mRNA expression

Peptidoglycan [PGN]
effect on cell recovery of any of the four breast cancer cell lines [2]: None of those ligands significantly reduced cell recovery | cell recovery, percent of control, on average [2]: 95% | secretion of IL-8 [4]: induced secretion of IL-8 in certain cell lines

From patent US20060147456A1, “Induction of apoptosis in toll-like receptor expressing tumor cells” (priority 2004, published 2006)
